Results: the NIST ThermoML archive (doi:10.1016/j.jct.2017.03.027)
± gives the expanded uncertainty stated by the source.

Experiments:
[1] = xn = mol fraction of the nth substance listed; conditions: 100 kPa, Liquid, Vibrating tube method
[2] = molar heat capacity at constant pressure; xn = mol fraction of the nth substance listed; conditions: 100 kPa, Liquid, Large sample (1 g) DSC

Cc1ccc(C(C)C)cc1 [1-(1-methylethyl)-4-methylbenzene] + CCO
Conditions | mass density, 298.15 K [kg/m3] | mass density, 308.15 K [kg/m3] | mass density, 318.15 K [kg/m3] | mass density, 328.15 K [kg/m3] | molar heat capacity at constant pressure, 298.6 K [J/K/mol] | molar heat capacity at constant pressure, 308.5 K [J/K/mol] | molar heat capacity at constant pressure, 318.5 K [J/K/mol] | molar heat capacity at constant pressure, 328.4 K [J/K/mol]
[1], x1 = 0.0494 | 793.49 ± 0.71 | 784.81 ± 0.71 | 775.96 ± 0.71 | 766.9 ± 0.71 | – | – | – | –
[1], x1 = 0.0995 | 800.72 ± 0.71 | 792.02 ± 0.71 | 783.15 ± 0.71 | 774.08 ± 0.71 | – | – | – | –
[1], x1 = 0.2 | 812.35 ± 0.71 | 803.65 ± 0.71 | 794.79 ± 0.71 | 785.71 ± 0.71 | – | – | – | –
[1], x1 = 0.3009 | 821.26 ± 0.71 | 812.6 ± 0.71 | 803.77 ± 0.71 | 794.75 ± 0.71 | – | – | – | –
[1], x1 = 0.4037 | 828.42 ± 0.71 | 819.8 ± 0.71 | 811.02 ± 0.71 | 802.06 ± 0.71 | – | – | – | –
[1], x1 = 0.5034 | 834.18 ± 0.71 | 825.62 ± 0.71 | 816.91 ± 0.71 | 808.04 ± 0.71 | – | – | – | –
[1], x1 = 0.6023 | 838.73 ± 0.71 | 830.22 ± 0.71 | 821.58 ± 0.71 | 812.79 ± 0.71 | – | – | – | –
[1], x1 = 0.7017 | 842.86 ± 0.71 | 834.43 ± 0.71 | 825.88 ± 0.71 | 817.21 ± 0.71 | – | – | – | –
[1], x1 = 0.802 | 846.53 ± 0.71 | 838.18 ± 0.71 | 829.75 ± 0.71 | 821.21 ± 0.71 | – | – | – | –
[1], x1 = 0.897 | 849.61 ± 0.71 | 841.37 ± 0.71 | 833.06 ± 0.71 | 824.68 ± 0.71 | – | – | – | –
[1], x1 = 0.9509 | 851.34 ± 0.71 | 843.19 ± 0.71 | 834.99 ± 0.71 | 826.74 ± 0.71 | – | – | – | –
[1], x1 = 1 | 852.93 ± 0.71 | 844.89 ± 0.71 | 836.81 ± 0.71 | 828.69 ± 0.71 | – | – | – | –
[2], x1 = 0.0494 | – | – | – | – | 121.2 ± 2 | 126.1 ± 2.1 | 130.8 ± 2.1 | 135.6 ± 2.2
[2], x1 = 0.0995 | – | – | – | – | 130 ± 2.1 | 134.7 ± 2.2 | 140.1 ± 2.3 | 145.9 ± 2.4
[2], x1 = 0.2 | – | – | – | – | 146.5 ± 2.4 | 152.2 ± 2.5 | 157.8 ± 2.6 | 163.8 ± 2.7
[2], x1 = 0.3009 | – | – | – | – | 162.2 ± 2.6 | 168.5 ± 2.7 | 174.7 ± 2.8 | 181 ± 2.9
[2], x1 = 0.4037 | – | – | – | – | 177.7 ± 2.9 | 183.8 ± 3 | 190.2 ± 3.1 | 197 ± 3.2
[2], x1 = 0.5034 | – | – | – | – | 192.6 ± 3.1 | 199 ± 3.2 | 205.4 ± 3.3 | 211.9 ± 3.4
[2], x1 = 0.6023 | – | – | – | – | 205.5 ± 3.3 | 211.8 ± 3.4 | 219.4 ± 3.6 | 225.1 ± 3.7
[2], x1 = 0.7017 | – | – | – | – | 217.6 ± 3.5 | 224.3 ± 3.6 | 230.7 ± 3.8 | 236.9 ± 3.9
[2], x1 = 0.802 | – | – | – | – | 229.2 ± 3.7 | 235.3 ± 3.8 | 240.9 ± 3.9 | 247 ± 4
[2], x1 = 0.897 | – | – | – | – | 238.6 ± 3.9 | 243.1 ± 4 | 248.4 ± 4 | 253.8 ± 4.1
[2], x1 = 0.9509 | – | – | – | – | 240.2 ± 3.9 | 243.9 ± 4 | 248.9 ± 4 | 254.1 ± 4.1
[2], x1 = 1 | – | – | – | – | 240.3 ± 3.9 | 244.7 ± 4 | 249.4 ± 4.1 | 254.4 ± 4.1
